{"source": "patent US6573060B1", "about": "“Methods and compositions for targeting DNA metabolic processes using aminoglycoside derivatives” (University of Virginia Patent Foundation, priority 1997, dated 2003)", "key": {"[1]": {"test_system": "Entamoeba histolytica", "test": "Entamoeba histolytica culture growth", "assay_type": "cell-based", "conditions": "72 h, read-out: concentration that completely kills the cells", "method": "Entamoeba histolytica HMl-ISS strain was used for the experiment. The cells were grown in tissue culture medium TYI-S-33 containing trypticase, yeast extract, iron and serum along with 100 units/ml penicillin and […] streptomycin sulfate. 500,000 amoebae were incubated in 2 mls of media. The drugs were added to the required final concentration. The total number of amoebae was counted every 24 hours after the addition of drugs using light microscope. Growth was monitored over a period of 72 hours."}, "[2]": {"test_system": "PC3 cell line", "test": "MTS cell survival assay, PC3 prostate cancer cells", "assay_type": "cell-based, human", "conditions": "FIG. 8, day five", "method": "The effect of phosphoaminoglycosides on tumor cell growth was tested in cell culture inhibition studies. 5000 cells were plated in a total volume of 50 μl in a 96 well titer plate. After 24 hours, 50 μl of media and drugs, to the required final concentration, were added. The plates were incubated at 37° C. for 5 days. On the 5th day, the fraction of surviving cells was estimated using a non-radioactive cell proliferation assay (CellTiter 96 AQueous Cell Proliferation Assay from Promega).\nThis is a colorimetric assay that determines the number of viable cells. The assay measures the bioreduction of a tetrazolium compound (3-(4,5-dimethylthiazol-2-yl)-5-(3-carboxymethoxyphenyl)-2-(4-sulfophenyl)-2H-tetrazolium, inner salt; MTS), via an electron coupling reagent (phenazine methosulfate; PMS), to formazan, which is soluble in the tissue culture medium. The absorbance of formazan at 490 nm can be measured from the 96 well assay plate without additional processing. The conversion of MTS into the aqueous soluble formazan is accomplished by dehydrogenase enzymes found in metabolically active cells. The quantity of formazan product as measured by the amount of 490 nm absorbance is directly proportional to the number of living cells in culture. 100 μl of the PMS reagent (Promega) was mixed with 2.0 ml of MTS solution (Promega). 20 μl of PMS/MTS solution was added to the cells and the plates were incubated at 37° C. for 2 hours before measuring the absorbance at 490 nm.\nIn an initial experiment, four drugs (A-kanamycin, B-phosphokanamycin, C-neomycin, and D-phosphoneomycin) were added to prostate cancer cell cultures in a blind fashion. Two prostate cancer cell lines were incubated with each of the drugs and assayed for cell survivability using the MTS assay (Promega).\n5000 cells were grown overnight in media and each respective drug (A-kanamycin, B-phosphokanamycin, C-neomycin, and D-phosphoneomycin) was added on the second day. […] Each point is the average of readings from three wells."}, "[3]": {"target": "T1, DNA-dependent ATPase A (Bos taurus, UniProt Q9TTA5)", "T1 sequence (Q9TTA5 222-940)": "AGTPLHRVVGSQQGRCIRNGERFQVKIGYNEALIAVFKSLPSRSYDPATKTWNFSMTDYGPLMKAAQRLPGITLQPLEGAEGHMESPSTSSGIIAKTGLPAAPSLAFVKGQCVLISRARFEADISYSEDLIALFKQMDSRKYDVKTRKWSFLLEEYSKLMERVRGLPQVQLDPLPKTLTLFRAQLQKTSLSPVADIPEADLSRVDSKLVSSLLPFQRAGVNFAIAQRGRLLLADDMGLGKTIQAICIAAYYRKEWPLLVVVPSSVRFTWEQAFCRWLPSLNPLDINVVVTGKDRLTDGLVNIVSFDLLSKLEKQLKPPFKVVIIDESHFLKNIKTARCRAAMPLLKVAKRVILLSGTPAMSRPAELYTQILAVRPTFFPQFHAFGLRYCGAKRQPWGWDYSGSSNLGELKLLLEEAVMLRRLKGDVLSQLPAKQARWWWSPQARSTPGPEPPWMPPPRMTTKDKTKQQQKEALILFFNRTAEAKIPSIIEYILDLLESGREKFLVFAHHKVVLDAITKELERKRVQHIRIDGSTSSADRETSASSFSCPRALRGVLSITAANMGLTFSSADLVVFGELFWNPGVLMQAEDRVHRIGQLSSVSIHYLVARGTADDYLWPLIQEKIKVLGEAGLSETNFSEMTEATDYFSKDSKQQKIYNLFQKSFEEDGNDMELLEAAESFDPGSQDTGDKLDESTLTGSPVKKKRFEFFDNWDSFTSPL", "test": "Inhibition of ATP hydrolysis by DNA-dependent ATPase A (overexpressed 82 kDa ADAAD)", "assay_type": "biochemical, bovine", "conditions": "for pKi: Ki; for inhibition of DNA-dependent ATPase A activity (in words): in vitro", "method": "Enzyme (0.2 units (one unit is the amount of enzyme required to hydrolyze 1 μmole of adenosine triphosphate per min)) was mixed with 50 mM Tris-SO4, pH 7.5, 1 mM MgCl2, 5 mM β-mercaptoethanol, 0.5 mg/mL bovine serum albumin, 2 mM phosphoenol pyruvate, 0.03 mg/mL pyruvate kinase, 10 nM of stem-loop DNA, and 2 mM adenosine triphosphate in a total volume of 100 μL. The reaction was typically incubated at 37° C. for 10-60 minutes. At the end of the designated time, 225 μL of 10% sodium dodecyl sulfate and 350 μL of water were added to stop the reaction. Color development requires the addition of two reagents: 180 μL of reagent A (prepared by mixing equal volumes of 60 to 70% perchloric acid and 5% ammonium molybdate in water) and 45 μL of reagent B (0.2 g 1:2:4 aminonaphthol sulfonic acid, 12.0 g sodium metabisulfite, and 2.4 g sodium sulfite dissolved in 100 mL of water) was added. The reaction was incubated at room temperature for 10 minutes and the absorbance was read at 720 nm. The color development was time-dependent and therefore samples must be read at exactly 10 minutes.\nEnzyme (0.2 units (one unit is the amount of enzyme required to hydrolyze 1 μmole of adenosine triphosphate per min)) was mixed with 25 mM Tris-acetate pH 7.5, 6 mM Mg(acetate)2, 60 mM KCl, 5 mM β-mercaptoethanol, 3 mM phosphoenol pyruvate, 10 units/mL pyruvate kinase, 10 units/mL lactate dehydrogenase 10 nM DNA, 2 mM adenosine triphosphate, and 0.1 mg/mL NADH in a final volume of 1 mL. The progress of the reaction at 37° C. was monitored at 340 nm using an HP8452 spectrophotometer.\nEnzyme (0.2 U) was mixed with 50 mM Tris-SO4, pH 7.5, 1 mM MgCl2, 5 mM β-mercaptoethanol, 0.5 mg/mL bovine serum albumin, 2 mM phosphoenol pyruvate, 0.03 mg/mL pyruvate kinase, 10 nM of stem-loop DNA, and 2 mM adenosine triphosphate in a total volume of 50 μL. Three (3) μCi of [^32P]-γ-adenosine triphosphate was added to the reaction and typical incubation was for 60 minutes 37° C. EDTA (25 mM) was added to stop the reaction. 10 μL of the reaction was spotted on a poly(ethylenimine)-cellulose plate. The plate was developed using 0.9M LiCl and 7M urea as solvent system. The plate was allowed to dry and autoradiographed either using X-OMAT film or a phosphorimager. […]"}}, "note": "pKi: −log10 of the molar value."}
{"smiles": "NC[C@H]1O[C@H](O[C@H]2[C@H](O)[C@@H](O[C@H]3O[C@H](CO)[C@@H](O)[C@H](N)[C@H]3O)[C@H](N)C[C@@H]2N)[C@H](O)[C@@H](OP(=O)(O)O)[C@@H]1O", "note": "[phosphokanamycin, 3′-phosphokanamycin]", "values": [{"measurement": "IC (100 (complete killing))", "setting": "[1]", "result": 200, "unit": "µM"}, {"measurement": "effect on PC3 cells (in words)", "setting": "[2]", "result": "effective in killing the PC3 cells"}, {"measurement": "pKi", "setting": "[3]; Table 4, determined in the presence of effector", "result": 6.24}, {"measurement": "pKi", "setting": "[3]; kinetic analysis of ATP hydrolysis, competitive with respect to DNA", "result": "~6.70"}, {"measurement": "inhibition of DNA-dependent ATPase A activity (in words)", "setting": "[3]", "result": "inhibitor"}, {"measurement": "inhibition of DNA-dependent ATPase A activity (in words)", "setting": "[3]; listed as 3′-phosphokanamycin", "result": "potent competitive (with respect to DNA) inhibitor"}, {"measurement": "decrease in amount of drug required for a given level of inhibition / potency relative to the parent aminoglycoside", "setting": "[3]; phosphorylated derivative vs parent", "result": 1000, "unit": "fold"}]}
